Source: US10752626B2, “Iso-citrate dehydrogenase (IDH) inhibitor” (SHANGHAI METON PHARMACEUTICAL CO., LTD, priority 2016, dated 2020)

Biological target: IDH1 R132C (Homo sapiens (Human), UniProt O75874, R132C)
Assay: Improved cell-based assay: D-2-HG in HT1080 cells over-expressing D-2-HG dehydrogenase
Conditions: 12 h
Text: The present disclosure also provides a cell based method for assaying IDH inhibition and selectivity of the compounds in human fibrosacoma cell line HT1080 and cholangiocarcinoma cell line HCCC 9810, which harbor endogenous heterozygous IDH1 R132C and R132H mutation respectively and accumulate D-2-HG Tumor derived IDH mutant lost its normal activity of producing α-KG and gained a new activity of producing D-2-HG D-2-HG is a metabolite specifically elevated in IDH mutated tumor samples.
By treating HT1080 and HCCC 9810 cells with an effective IDH inhibitor, the synthesis of D-2-HG is blocked, and D-2-HG concentration is decreased by the oxidation reaction catalyzed by D-2-HG dehydrogenase.
To perform a cell based IDH inhibitor assay, HT1080 and HCCC 9810 cells (or other cell lines harboring different IDH mutations) are cultured in DMEM supplemented with 10% FBS. The cells are treated with compounds of present disclosure at various different concentration. At various time points (between 4-24 hours) after the treatment, cell culture supernatants were removed and cells were washed with PBS for one or two times. Cell metabolites are extracted by adding 80% methanol (pre-chilled under −80° C.) in the cells, extract at 4° C. temperature for 60 min, centrifuged to remove any insoluble component. Metabolites (clear supernatant from the previous step) are lyophilized and reconstituted in pyridine containing 20 mg/ml O-methoxyamineHCl and are incubated at 70° C. for 40 minutes. After cooling down to room temperature, MTBSTFA (N-tert-Butyldimethylsilyl-N-methyltrifluoroacetamide, Sigma Aldrich) is added at a volume ratio of 4:7 (e.g., 20 μL MTBSTFA to 35 μL 20 mg/ml O-methoxyamineHCl solution) and derivation is performed at 70° C. for 30 minutes. The derived metabolites including D-2-HG are analyzed by Agilent 7890A-5750 GC/MS system. […] of the derived metabolite is injected into Agilent 7890A-5750 for D-2-HG concentration analysis. GC oven temperature is programmed from 140° C. to 260° C. at 10° C./min, from 260° C. to 310° C. at 8° C./min and hold at 310° C. for 5 min. The flow rate of carrier gas is 1 ml/min. The mass spectrometer is operated in the electron impact (EI) mode at 70 eV D-2-HG is normalized to endogenous glutamate.
The activity of IDHs in the presence of each compounds at different concentrations can be represented by relative D-2-HG concentration to negative control samples, and the IC50 value, the inhibition and selectivity for each compound can be evaluated.
The present disclosure also provides an improved cell-based assay for IDH inhibition and selectivity of the compounds, which involves stably over-expressing D-2-HG dehydrogenase in HT1080 and HCCC 9810 cells.
According to previous report, over expression of D-2-HG dehydrogenase decreases the half-life of D-2-HG in HT1080 cells (FIGS. 2A and 2B) [“D-2-hydroxyglutarate is essential for maintaining oncogenic property of mutant IDH-containing cancer cells but dispensable for cell growth”, Ma, S., et al., Oncotarget, (2015)], making the cells more sensitive to D-2-HG synthesis blockage by mutant IDH1 inhibitors. It will greatly increase the sensitivity and accurateness of this cell based assay. In the improved cell-based assay, all other steps are performed as disclosed in Test 6.
The D-2-HG inhibition activity of compounds was also assessed in the improved cell-based assay according to the method disclosed in Test 7 of the Biological evaluation section. HT1080 cells over-expressing D-2-HG dehydrogenase were cultured in 35 mm plate and treated with each of Compounds 1-37 at a concentration of 0.5 μM, 1 μM, 2.5 μM and 5 μM for 12 h, respectively, and the D-2-HG concentration was analysed. The inhibition ratio of D-2-HG in HT1080 cell by the exemplary Compounds 16, 21-24 and 31 at different concentrations were shown in Table 10.

Chain of IDH1 R132C (O75874 2-414 R132C): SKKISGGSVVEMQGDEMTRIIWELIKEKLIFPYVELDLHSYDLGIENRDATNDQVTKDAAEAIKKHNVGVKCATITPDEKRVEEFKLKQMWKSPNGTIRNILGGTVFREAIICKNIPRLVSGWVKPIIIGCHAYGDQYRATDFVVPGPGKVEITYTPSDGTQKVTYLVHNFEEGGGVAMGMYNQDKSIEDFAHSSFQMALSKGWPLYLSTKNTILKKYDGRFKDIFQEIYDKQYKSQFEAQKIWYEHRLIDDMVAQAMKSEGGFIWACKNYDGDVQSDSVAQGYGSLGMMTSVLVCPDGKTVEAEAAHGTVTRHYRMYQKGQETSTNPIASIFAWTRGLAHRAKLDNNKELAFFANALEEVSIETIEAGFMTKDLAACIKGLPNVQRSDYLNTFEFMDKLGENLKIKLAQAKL

Row | SMILES | Inhibition ratio of D-2-HG in HT1080 cell (0.5 μM) [%] | Inhibition ratio of D-2-HG in HT1080 cell (1 μM) [%] | Inhibition ratio of D-2-HG in HT1080 cell (2.5 μM) [%] | Inhibition ratio of D-2-HG in HT1080 cell (5 μM) [%]
1 | CCN1Cc2c(ccnc2N[C@@H](C)c2ccc(Oc3ccc(C)cc3)cc2)C1=O [Compound 16, (S)-2-ethyl-4-(1-(4-(p-tolyloxy)phenyl)ethylamino)-2,3-dihydro-1H-pyrrolo [3,4-c]pyridin-1-one] | 51 | 60.2 | 67 | 82.2
2 | CCN1Cc2c(ccnc2N[C@@H](C)c2ccc(Oc3ccccc3)c(F)c2)C1=O [Compound 23, (S)-2-ethyl-4-((1-(3-fluoro-4-phenoxyphenyl)ethyl)amino)-2,3-dihydro-1H-pyrrolo[3,4-c]pyridin-1-one] | 12.5 | 30.7 | 68.3 | 76.7
